This is an account of results in paper PMC539285, “Anti-Plasmodium activity of ceramide analogs” (Malaria Journal, 2004).

Series [1] relates to chloroquine-resistant strain FcB1 of P. falciparum. Description: Anti-Plasmodium activity, [3H]hypoxanthine microdilution on asynchronous cultures. The following applies: Plasmodium falciparum; strain FcB1, asynchronous cultures, n = 3; read-out: IC50. It is filed as cell-based, Plasmodium falciparum. Here is the method: P. falciparum strains (FcB1/Colombia, K1/Thailand, F32/Tanzania, W2/Indochina) were maintained in continuous culture on human erythrocytes in RPMI medium containing 7% (v/v) heat-inactivated human serum under an atmosphere of 3% CO2, 6% O2, 91% N2, at 37°C, as described by Trager and Jensen. Parasite synchronization was performed successively by treatment with 5% (w/v) sorbitol and by concentration in gelatin solution as previously described.
Drug susceptibility assays were performed using a modification of the semi automated microdilution technique of Desjardins et al.. Stock solutions of test compounds were prepared in DMSO. Drug solutions were serially diluted twofold with 100 μl culture medium in 96-well plates. Asynchronous parasite cultures (100 μl, 1 % parasitemia and 1 % final hematocrite) were added to each well and incubated for 24 hours at 37°C prior to the addition of 0.5 μCi of [^3H] hypoxanthine (Amersham, France, 1 to 5 Ci.mmol/ml) per well. After a further incubation of 24 hour, plates were frozen and thawed. Cell lysates were then collected onto glass-filter papers and counted in a liquid scintillation spectrometer. The growth inhibition for each drug concentration was determined by comparison of the radioactivity incorporated in the treated culture with that in the control culture (having the same final % of DMSO) maintained on the same plate. The concentration causing 50% growth inhibition (IC50) and 90% growth (IC90) were obtained from the drug concentration-response curve and the results were expressed as the means ± the standard deviations determined from several independent experiments.
(In broth dilution the organism is exposed to a series of concentrations in liquid medium.)

A short description of series [2]: Cytotoxicity test upon human embryonic cells (MTT). It is filed as cell-based. As to conditions: human, MRC-5 human diploid embryonic lung cells; MRC-5, five days, MTT; mean of three experiments. Here is the method: (§1) A human diploid embryonic lung cell line (MRC-5, Bio-Whittaker 72211D) was used to assess the cytotoxic effects towards eukaryotic host cells. MRC-5 cells were seeded at 5,000 cells per well in 100 μl. After 24 hours, the cells were washed and two-fold dilutions of the drug were added in 200 μl standard culture medium (RPMI medium + 5% fetal calf serum) and maintained for five days under 5% CO2 atmosphere. The final DMSO concentration in the culture remained below 0.1%. Untreated cultures were included as controls. The cytotoxicity was determined using the colorimetric MTT assay according to the manufacturer's recommendations (Cell proliferation kit I, Roche Applied Science, France) and scored as a percentage of reduction in absorption at 540 nm of treated cultures versus untreated control cultures. […] The results were expressed as the mean ± the standard deviations determined from several independent experiments. The index of selectivity was defined as the ratio of the IC50 value on MRC-5 to that of P. falciparum.

For series [3], the system named is human MRC-5 cells. The series can be described thus: Cytotoxicity test upon human embryonic cells (MTT). It is filed as cell-based. The following applies: Homo sapiens, MRC5, 120 h; MRC-5, five days, MTT; mean of three experiments. As for the experimental part: as §1
The subject of series [4] is P. falciparum sphingomyelin synthase activity. The series can be described thus: Sphingomyelin synthase activity assay in trophozoite cultures (NBD-C6-ceramide). It is filed as cell-based, Plasmodium falciparum. As to conditions: trophozoites 20-30 h, 0-500 μM drug, 10 μM NBD-C6-ceramide, 60 min, 37°C. Here is the method: SPM synthase activity was measured as described by Haldar et al.. Briefly, assays were performed on P. falciparum cultures at the trophozoite stage (20–30 h old parasites). 400 μl of culture (1 × 10^8 parasites) were incubated for 60 min at 37°C with 10 μM NBD-C6-ceramide and 0 to 500 μM PPMP or AD2646. Cells were then lysed by freezing and thawing of the culture. Lipids were extracted by a modification of the method of Bligh and Dyer. To each sample, three volumes of a CH3OH/CHCl3 mixture (1:2, v:v) were added and the mixture vortexed for one min. Organic and aqueous phases were separated by centrifugation (12,000 × g, five min) and the organic phase was dried. Lipids were dissolved in 15 μl ethanol and analysed by thin layer chromatography on HPTLC plates (Silica gel 60 F254, Merck, Darmstadt, Germany) in CH3OH/[…]/NH4OH (75:25:4, v:v:v). For qualitative analyses, the fluorescent lipids were detected under UV and for quantitative analyses, the fluorescent lipid spots were scraped, eluted in one ml methanol and quantified at an excitation of 470 nm and an emission of 530 nm in a spectrofluorometer. The percentage of SPM synthase activity for each drug concentration was determined by comparison of the fluorescence quantified in the analog-treated culture with that in the control culture (without drug).

In series [5] the test system is tubovesicular network of P. falciparum. Description: Tubovesicular network formation, BODIPY-FL-C5-ceramide fluorescence microscopy. It is filed as cell-based, Plasmodium falciparum. As for the experimental part: Infected erythrocytes treated with or without ceramide analogs were incubated for 30 min, at 37°C, in culture medium containing 10 μM BODIPY-FL-C5-ceramide, washed three times with culture medium without serum and fixed overnight, at 4°C, in 3.7% formaldehyde/0.05% glutaraldehyde. Cells were mounted on poly-L-lysine coated slides and viewed using a Nikon Eclipse TE 300 DV inverted microscope with an 100X oil objective mounted on a piezzo electric device using appropriate fluorescence emission filters. Image acquisition (z-series) was performed with a back illuminated cooled detector (CCD EEV: NTE/CCD-1024-EB, Roper Scientific, France) using a 0.2 μm step. Data acquisition and image deconvolution process were performed with Metamorph software (Universal Imaging Corporation, Roper Scientific, France). The images presented correspond to the maximum intensity projection of the deconvoluted z-series.

Series [6] deals with malaria-induced anion channel. The series can be described thus: Malaria-induced anion channel activity, whole-cell patch-clamp. It is filed as cell-based, Plasmodium falciparum. As to conditions: infected erythrocytes, 24 hours, 250 nM AD2646 or 10 μM PPMP, whole-cell patch-clamp (unpublished data). From the text: Sphingolipids preferentially interact with cholesterol in membranes, especially in detergent-resistant microdomains (DRMs or rafts). Rafts have been described in Plasmodium and are involved, at least, in the uptake of erythrocyte raft proteins and maintenance of the parasitophorous vacuole containing the parasite, inside the erythrocyte. This interaction implies : 1) van der Waals interactions between the saturated acyl chain and sphingoid moiety of sphingolipids and the rigid planar tetracyclic rings of cholesterol and 2) hydrogen bonds between the 3-β hydroxyl group of cholesterol and the fatty acyl carbonyl group resulting from the amide linkage with the sphingoid moiety. The amide-linked fatty acid function seems to have a profound stabilizing effect on cholesterol-sphingolipid interactions. It could be hypothesized that in a membrane context, methylene analogs might have a destabilizing effect on the cholesterol-sphingolipid interactions and, in consequence, modifications of membrane properties. Indeed, P. falciparum growth is characterized by a setting up of new permeabilities of the infected-erythrocyte membrane. Although the biochemical nature of these new permeabilities is still unknown, they have been characterized from an electrophysiological point of view and involve a malaria-induced anion channel. […]

For series [7], the system named is P. falciparum synchronized cultures. The series can be described thus: Parasite stage-specific inhibitory effects and reversibility (Giemsa-stained smears). It is filed as cell-based, Plasmodium falciparum. The following applies: rings, 24 hours incubation with 5 μM, then drug removal (data not shown).
The subject of series [8] is P. falciparum. The arrangement: method as in PMID 7568097. As to conditions: synchronized cultures at the ring stage; read-out: IC50 previously reported; cited from earlier work.

One may read the IC50 as the concentration that inhibits the measured activity by half. What is called IC90 is the concentration at which the effect reaches the 90% level. Low values mean greater potency, high ones weaker potency. As to `CCCCCCCCCCCCCCCC(=O)NC(CN1CCOCC1)C(O)c1ccccc1` (stereo not drawn) [PPMP, d,1-threo-1-phenyl-2-palmitoylamino-3-morpholino-1-propanol, reference compound], the IC50 in series [1] is 9 ± 1.7 µM; in series [3] it was 7.5 µM; in series [8], 0.85 µM. In series [2], this compound registered an IC90 at 5 days of 12.4 µM. The “inhibition of SPM synthase activity (shape of curve)” value in series [4] is reported as “biphasic inhibition curve”. Further, in series [5] (rings incubated 24 hours with 60 nM AD2646 or 5 μM PPMP), the TVN formation entry is given as “no TVN was observed”. In series [5] (rings, 24 hours, 5 μM), the ring development result is reported as “totally inhibited”. For the same compound, in series [6], the “induced anion channel activity” value was “did not modulate significantly the induced channel activity”. Further, the “reversibility of ring-stage block” value in series [7] was “recovered to a normal growth after drug removal”.
